# Assay results taken from patent US4740233A, “Substituted 1,2,4-triazolo[1,5-a]-pyrimidine-2-sulfonamides and compositions and methods of controlling undesired vegetation and suppressing the nitrification of ammonium nitrogen in soil” (The Dow Chemical Company, priority 1986, dated 1988).
# Tested on: nitrification of ammonium nitrogen
# Experiment: Suppression of nitrification of ammonium nitrogen in soil
# Conditions: 27° C.
# Method: A sufficient volume of water was added to 20 g of the soil in a wide-mouth, screw-cap, 4-ounce, glass bottle, such that the moisture content of the mixture was made equal to the 1/3 bar tension value for that soil. The mixture was thoroughly mixed before sealing. […] Acetone slows the rate of soil nitrification and its concentration must be carefully controlled. Single samples of each test chemical were incubated for two weeks at 27° C.
# The experiment comprised the following types of samples:
# The soil samples were analyzed as follows: Sufficient ammonium sulfate extracting solution was added to the sample, such that the total volume of added water was 50 ml (included water added during sample preparation). The capped mixture was shaken 10 minutes to solubilize nitrate and the soil particulates were allowed to settle. The nitrate concentration in the water phase was determined with a nitrate-specific ion electrode such as Orion Model 93-07.
# The non-nitrate nitrogen remaining (% NH4 -N remaining) in the soil after two weeks (performance value) was calculated as follows: [formula]
compound,measurement,setting,value
Cc1cc(C)n2nc(S(=O)(=O)Nc3ccccc3O)nc2n1 [Compound 3],% NH4-N Remaining After 2 Weeks Incubation,0.01 ppm,0%
same,% NH4-N Remaining After 2 Weeks Incubation,0.1 ppm,0%
same,% NH4-N Remaining After 2 Weeks Incubation,1 ppm,0%
same,% NH4-N Remaining After 2 Weeks Incubation,10 ppm,25%
CNc1ccccc1NS(=O)(=O)c1nc2nc(C)cc(C)n2n1 [Compound 5],% NH4-N Remaining After 2 Weeks Incubation,0.01 ppm,0%
same,% NH4-N Remaining After 2 Weeks Incubation,0.1 ppm,0%
same,% NH4-N Remaining After 2 Weeks Incubation,1 ppm,1%
same,% NH4-N Remaining After 2 Weeks Incubation,10 ppm,28%
Cc1cc(C)n2nc(S(=O)(=O)Nc3ccccc3C(=O)O)nc2n1 [Compound 11],% NH4-N Remaining After 2 Weeks Incubation,0.01 ppm,0%
same,% NH4-N Remaining After 2 Weeks Incubation,0.1 ppm,0%
same,% NH4-N Remaining After 2 Weeks Incubation,1 ppm,0%
same,% NH4-N Remaining After 2 Weeks Incubation,10 ppm,5%
Cc1cc(C)n2nc(S(=O)(=O)Nc3ccc(Cl)cc3)nc2n1 [Compound 18],% NH4-N Remaining After 2 Weeks Incubation,0.01 ppm,0%
same,% NH4-N Remaining After 2 Weeks Incubation,0.1 ppm,0%
same,% NH4-N Remaining After 2 Weeks Incubation,1 ppm,5%
same,% NH4-N Remaining After 2 Weeks Incubation,10 ppm,50%
Cc1cc(C)n2nc(S(=O)(=O)Nc3ccc(Cl)cc3Cl)nc2n1 [Compound 20],% NH4-N Remaining After 2 Weeks Incubation,0.06 ppm,0%
same,% NH4-N Remaining After 2 Weeks Incubation,0.125 ppm,0%
same,% NH4-N Remaining After 2 Weeks Incubation,0.25 ppm,0%
same,% NH4-N Remaining After 2 Weeks Incubation,0.5 ppm,5%
same,% NH4-N Remaining After 2 Weeks Incubation,1 ppm,8%
Cc1cc(C)n2nc(S(=O)(=O)Nc3cc(Cl)ccc3Cl)nc2n1 [Compound 21],% NH4-N Remaining After 2 Weeks Incubation,0.01 ppm,8%
same,% NH4-N Remaining After 2 Weeks Incubation,0.1 ppm,42%
same,% NH4-N Remaining After 2 Weeks Incubation,1 ppm,68%
same,% NH4-N Remaining After 2 Weeks Incubation,10 ppm,86%
Cc1cc(C)n2nc(S(=O)(=O)Nc3cc(Cl)cc(Cl)c3)nc2n1 [Compound 24],% NH4-N Remaining After 2 Weeks Incubation,0.01 ppm,0%
same,% NH4-N Remaining After 2 Weeks Incubation,0.1 ppm,28%
same,% NH4-N Remaining After 2 Weeks Incubation,1 ppm,65%
same,% NH4-N Remaining After 2 Weeks Incubation,10 ppm,83%
Cc1cc(C)n2nc(S(=O)(=O)Nc3c(F)cccc3C(=O)O)nc2n1 [Compound 27],% NH4-N Remaining After 2 Weeks Incubation,0.01 ppm,0%
same,% NH4-N Remaining After 2 Weeks Incubation,0.1 ppm,0%
same,% NH4-N Remaining After 2 Weeks Incubation,1 ppm,0%
same,% NH4-N Remaining After 2 Weeks Incubation,10 ppm,35%
Cc1cc(C)n2nc(S(=O)(=O)Nc3cc(C(F)(F)F)ccc3S(=O)(=O)N(C)C)nc2n1 [Compound 28],% NH4-N Remaining After 2 Weeks Incubation,0.01 ppm,0%
same,% NH4-N Remaining After 2 Weeks Incubation,0.1 ppm,5%
same,% NH4-N Remaining After 2 Weeks Incubation,1 ppm,42%
same,% NH4-N Remaining After 2 Weeks Incubation,10 ppm,66%
Cc1cc(C)n2nc(S(=O)(=O)Nc3ccc(F)cc3F)nc2n1 [Compound 29],% NH4-N Remaining After 2 Weeks Incubation,0.01 ppm,0%
same,% NH4-N Remaining After 2 Weeks Incubation,0.1 ppm,0%
same,% NH4-N Remaining After 2 Weeks Incubation,1 ppm,1%
same,% NH4-N Remaining After 2 Weeks Incubation,10 ppm,51%
Cc1cc(C)n2nc(S(=O)(=O)Nc3ccccc3C(=O)OC(C)C)nc2n1 [Compound 36],% NH4-N Remaining After 2 Weeks Incubation,0.01 ppm,0%
same,% NH4-N Remaining After 2 Weeks Incubation,0.1 ppm,0%
same,% NH4-N Remaining After 2 Weeks Incubation,1 ppm,17%
same,% NH4-N Remaining After 2 Weeks Incubation,10 ppm,60%
Cc1cc(C)n2nc(S(=O)(=O)Nc3ccc(Cl)cc3Br)nc2n1 [Compound 40],% NH4-N Remaining After 2 Weeks Incubation,0.6 ppm,0%
same,% NH4-N Remaining After 2 Weeks Incubation,1.25 ppm,0%
same,% NH4-N Remaining After 2 Weeks Incubation,2.5 ppm,40%
same,% NH4-N Remaining After 2 Weeks Incubation,5 ppm,17%
same,% NH4-N Remaining After 2 Weeks Incubation,10 ppm,66%
